Assay [1] concerns the target T1, recombinant human 17β-HSD2 (Homo sapiens, UniProt P37059).
T1 construct: made in house; host or cells: Sf9 insect cells (baculovirus, Bac to Bac Expression System)
T1 sequence (P37059 1-387): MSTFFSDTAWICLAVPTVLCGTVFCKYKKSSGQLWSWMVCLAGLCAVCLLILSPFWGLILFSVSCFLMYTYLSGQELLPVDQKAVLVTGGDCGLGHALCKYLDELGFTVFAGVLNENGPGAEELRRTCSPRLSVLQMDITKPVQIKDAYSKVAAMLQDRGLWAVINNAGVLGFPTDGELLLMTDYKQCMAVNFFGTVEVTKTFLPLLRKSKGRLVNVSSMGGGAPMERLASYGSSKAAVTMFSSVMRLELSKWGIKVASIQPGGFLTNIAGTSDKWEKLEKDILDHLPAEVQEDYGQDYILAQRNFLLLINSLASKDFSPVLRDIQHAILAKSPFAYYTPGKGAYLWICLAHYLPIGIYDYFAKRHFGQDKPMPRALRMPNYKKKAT
Briefly: Recombinant 17β-HSD2 assay (HPLC, 3H-estradiol conversion). The assay is classed as biochemical. As to conditions: 50 nM estradiol, 1 mM β-NAD, read-out: Inhibition of rec. 17β-HSD2; for inhibition at 0.1 µM: 100 nM compound; for inhibition at 1 µM: 1 μm compound. Here is the method:
17β-HSD1 or 17β-HSD2 purification: Recombinant 17β-HSD1 and 17β-HSD2 baculoviruses were generated by the “Bac to Bac Expression System” (Invitrogen). Recombinant 17β-HSD1 or 17β-HSD2 bacmids were transfected to Sf9 insect cells using “Cellfectin Reagent” (Invitrogen). 60 h later cells were harvested; the fractions including 17β-HSD1 or 17β-HSD2 were isolated as described by Puranen et al. (1994). Aliquots were stored frozen until determination of enzymatic activity. Recombinant 17β-HSD2 assay: Recombinant 17β-HSD2 assay was performed as described for 17β-HSD1 but with following modifications: 6 μg/ml of recombinant protein homogenate, 50 nM Estradiol (Sigma, E8875) as a substrate, 800 000 cpm/ml ^3H-estradiol (PerkinElmer, NET317) as a tracer substrate and 1 mM β-NAD (Sigma N7004) as a co-factor were used. Total radioactivity for estrone and estradiol were determined in each sample and percent inhibition of estrone conversion by the respective inhibitor was calculated. For the calculation of % inhibition the following formula was used: [formula] Percent inhibition was calculated as follows: % inhibition=100−% conversion

Assay [2] concerns the target T2, recombinant human 17β-HSD1 (Homo sapiens, UniProt P14061).
T2 construct: made in house; host or cells: Sf9 insect cells (baculovirus, Bac to Bac Expression System)
T2 sequence (P14061 1-328): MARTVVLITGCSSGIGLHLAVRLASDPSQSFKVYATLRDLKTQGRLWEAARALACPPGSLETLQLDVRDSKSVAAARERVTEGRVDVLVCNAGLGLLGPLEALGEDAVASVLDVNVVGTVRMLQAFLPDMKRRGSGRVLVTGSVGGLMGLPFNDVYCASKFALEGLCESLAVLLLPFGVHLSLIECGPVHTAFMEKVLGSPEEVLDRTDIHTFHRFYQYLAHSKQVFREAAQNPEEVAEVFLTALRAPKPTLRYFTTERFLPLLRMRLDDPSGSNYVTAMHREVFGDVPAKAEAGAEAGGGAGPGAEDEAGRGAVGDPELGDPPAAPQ
Put plainly: Recombinant 17β-HSD1 assay (HPLC, 3H-estrone conversion). The assay is classed as biochemical. As to conditions: 30 nM estrone, 1 mM NADPH, 30 min RT, read-out: Inhibition of rec. 17β-HSD1; for inhibition at 0.1 µM: 100 nM compound; for inhibition at 1 µM: 0.5 h, 1 μm compound. The protocol:
17β-HSD1 or 17β-HSD2 purification: Recombinant 17β-HSD1 and 17β-HSD2 baculoviruses were generated by the “Bac to Bac Expression System” (Invitrogen). Recombinant 17β-HSD1 or 17β-HSD2 bacmids were transfected to Sf9 insect cells using “Cellfectin Reagent” (Invitrogen). 60 h later cells were harvested; the fractions including 17β-HSD1 or 17β-HSD2 were isolated as described by Puranen et al. (1994). Aliquots were stored frozen until determination of enzymatic activity.
Recombinant 17β-HSD1 assay: Recombinant protein homogenate (0.1 μg/ml) was incubated in 20 mM KH2PO4 pH 7.4 reaction buffer, including protease inhibitors (Complete Protease Inhibitor Cocktail tablet, Roche Diagnostics, 1697498), with 30 nM estrone (Sigma, E9750) as substrate, 800 000 cpm/ml ^3H-estrone (PerkinElmer, NET319001MC) as a tracer substrate, and 1 mM NADPH (Sigma, N1630) as a co-factor for 30 min at RT, in the presence of potential inhibitors at concentrations of 1 μM or 0.1 μM. Inhibitor stock solutions were prepared in DMSO. The enzyme reaction was stopped by addition of trichloroacetic acid (1% final concentration). Samples were centrifuged in a microtiter plate at 4000 rpm for 10 min. Supernatants were applied to reverse phase HPLC on a Waters Symmetry C18 column, equipped with a Waters Sentry Guard column. Isocratic HPLC runs were performed at RT at a flow rate of 1 ml/min of acetonitrile:water 48:52 as running solvent. Radioactivity was monitored in the eluate by a Packard Flow Scintillation Analyzer. Total radioactivity for estrone and estradiol were determined in each sample and percent inhibition of estradiol conversion by the respective inhibitor was calculated
For the calculation of % inhibition the following formula was used:
[formula] Percent inhibition was calculated as follows: % inhibition=100−% conversion

For `Cc1cnc(NC(=O)CC[C@@H]2CC(=O)[C@@]3(C)CC[C@@H]4c5ccc(C(N)=O)cc5CC[C@H]4[C@H]23)s1` [Compound 3, 15β-{3-[(5-methyl-1,3-thiazol-2-yl)amino]-3-oxopropyl}-17-oxoestra-1(10),2,4-triene-3-carboxamide], in assay [1], the inhibition (in general, the drop in the measured response relative to a control, in per cent) at 0.1 µM was -1.8% and the inhibition at 1 µM worked out at 8.6%. In assay [2], the inhibition at 0.1 µM is 20% and the inhibition at 1 µM was 74%.

Turning to `Cc1cnc(NC(=O)CC[C@@H]2CC(=O)[C@@]3(C)CC[C@@H]4c5ccc(B(O)O)cc5CC[C@H]4[C@H]23)s1` [Compound 11, [15β-{3-[(5-methyl-1,3-thiazol-2-yl)amino]-3-oxopropyl}-17-oxoestra-1(10),2,4-trien-3-yl]boronic acid], the inhibition at 0.1 µM in assay [1] turned out to be 4.2%; in assay [2], 62%. The inhibition at 1 µM in assay [1] is 5.5%; in assay [2], 88%.

In the case of `C[C@]12CC[C@@H]3c4ccc(B(O)O)cc4CC[C@H]3[C@@H]1[C@@H](CCCC(=O)NCc1ccc(O)c(O)c1)CC2=O` [Compound 12, [15alpha-{4-[(3,4-dihydroxybenzyl)amino]-4-oxobutyl}-17-oxoestra-1(10),2,4-trien-3-yl]boronic acid], the inhibition at 0.1 µM was -5% in assay [1] and 32% in assay [2]. Besides, the inhibition at 1 µM in assay [1] is 6.2%; in assay [2], 57%.

With `Cc1cnc(NC(=O)CCC[C@H]2CC(=O)[C@@]3(C)CC[C@@H]4c5ccc(B(O)O)cc5CC[C@H]4[C@H]23)s1` [Compound 16, [15alpha-{4-[(5-methyl-1,3-thiazol-2-yl)amino]-4-oxobutyl}-17-oxoestra-1(10),2,4-trien-3-yl]boronic acid], in assay [2], the inhibition at 0.1 µM came out at 30% and the inhibition at 1 µM came out at 59%.

Take `C[C@]12CC[C@@H]3c4ccc(B(O)O)cc4CC[C@H]3[C@@H]1[C@@H](CCCC(=O)NCc1ccc3c(c1)OCO3)CC2=O` [Compound 19, [15alpha-{4-[(1,3-benzodioxol-5-ylmethyl)amino]-4-oxobutyl}-17-oxoestra-1(10),2,4-trien-3-yl]boronic acid]: the inhibition at 0.1 µM in assay [1] is -2.4%; in assay [2] it was 19%. Also, the inhibition at 1 µM in assay [1] stood at 0.1%; in assay [2] it was 43%.

`CN(Cc1ccccc1)C(=O)CCC[C@H]1CC(=O)[C@@]2(C)CC[C@@H]3c4ccc(B(O)O)cc4CC[C@H]3[C@H]12` [Compound 22, [15alpha-{4-[benzyl(methyl)amino]-4-oxobutyl}-17-oxoestra-1(10),2,4-trien-3-yl]boronic acid]: in assay [2], the inhibition at 0.1 µM amounted to 37% and the inhibition at 1 µM turned out to be 60%.

With `C[C@]12CC[C@@H]3c4ccc(B(O)O)cc4CC[C@H]3[C@@H]1[C@@H](CCCC(=O)NCc1ccccc1)CC2=O` [Compound 23, [15alpha-[4-(benzylamino)-4-oxobutyl]-17-oxoestra-1(10),2,4-trien-3-yl]boronic acid], the results for the inhibition at 0.1 µM in assay [1] and in assay [2] were 1.8% and 76%, respectively. The values for the inhibition at 1 µM in assay [1] and in assay [2] were 0.4% and 54%, respectively.

`COc1ccc(CCN(C)C(=O)CCC[C@H]2CC(=O)[C@@]3(C)CC[C@@H]4c5ccc(B(O)O)cc5CC[C@H]4[C@H]23)cc1OC` [Compound 26, [15alpha-(4-{[2-(3,4-dimethoxyphenyl)ethyl](methyl)amino}-4-oxobutyl)-17-oxoestra-1(10),2,4-trien-3-yl]boronic acid]: in assay [2], the inhibition at 0.1 µM amounted to 21% and the inhibition at 1 µM amounted to 41%.

Regarding `Cc1cccc2c(CCNC(=O)CC[C@@H]3CC(=O)[C@@]4(C)CC[C@@H]5c6ccc(B(O)O)cc6CC[C@H]5[C@H]34)c[nH]c12` [Compound 30, [15beta-(3-{[2-(7-methyl-1H-indol-3-yl)ethyl]amino}-3-oxopropyl)-17-oxoestra-1(10),2,4-trien-3-yl]boronic acid], in assay [1], the inhibition at 0.1 µM worked out at 1.3% and the inhibition at 1 µM is 6.3%. Moreover, in assay [2], the inhibition at 0.1 µM came out at 50% and the inhibition at 1 µM amounted to 56%.

Turning to `Cc1cnc(NC(=O)CC[C@@H]2CC(=O)[C@@]3(C)CC[C@@H]4c5ccc(B(O)O)cc5CC[C@H]4[C@H]23)s1` [Compound 31, [15beta-{3-[(5-methyl-1,3-thiazol-2-yl)amino]-3-oxopropyl}-17-oxoestra-1(10),2,4-trien-3-yl]boronic acid], in assay [1], the inhibition at 0.1 µM was found to be 2.6% and the inhibition at 1 µM stood at 1.6%. In addition, in assay [2], the inhibition at 0.1 µM amounted to 82% and the inhibition at 1 µM was found to be 90%.

For `C[C@]12CC[C@@H]3c4ccc(B(O)O)cc4CC[C@H]3[C@@H]1[C@H](CCC(=O)NC1CCCCC1)CC2=O` [Compound 32, [15beta-[3-(cyclohexylamino)-3-oxopropyl]-17-oxoestra-1(10),2,4-trien-3-yl]boronic acid], the inhibition at 0.1 µM worked out at 1.1% in assay [1] and 77% in assay [2]. In addition, the results for the inhibition at 1 µM in assay [1] and in assay [2] were 3.5% and 91%, respectively.

As for `CN(Cc1ccccc1)C(=O)CC[C@@H]1CC(=O)[C@@]2(C)CC[C@@H]3c4ccc(B(O)O)cc4CC[C@H]3[C@H]12` [Compound 37, [15beta-{3-[benzyl(methyl)amino]-3-oxopropyl}-17-oxoestra-1(10),2,4-trien-3-yl]boronic acid], in assay [2], the inhibition at 0.1 µM came out at 22% and the inhibition at 1 µM worked out at 49%.

On to `COc1cc(Nc2ccc3c(c2)CC[C@H]2[C@@H]4[C@@H](CCCC(=O)N5CCOCC5)CC(=O)[C@@]4(C)CC[C@H]32)cc(C(F)(F)F)c1` [Compound 75, 3-{[3-methoxy-5-(trifluoromethyl)phenyl]amino}-15alpha-(4-morpholin-4-yl-4-oxobutyl)estra-1(10),2,4-trien-17-one], for which, in assay [2], the inhibition at 0.1 µM is 36% and the inhibition at 1 µM is 50%.

Regarding `C[C@]12CC[C@@H]3c4ccc(Nc5cccc(S(=O)(=O)N6CCOCC6)c5)cc4CC[C@H]3[C@@H]1[C@@H](CCCC(=O)N1CCOCC1)CC2=O` [Compound 76, 15alpha-(4-morpholin-4-yl-4-oxobutyl)-3-{[3-(morpholin-4-ylsulfonyl)phenyl]amino}estra-1(10),2,4-trien-17-one], in assay [2], the inhibition at 0.1 µM came to 29% and the inhibition at 1 µM was 26%.

As to `C[C@]12CC[C@@H]3c4ccc(Nc5cnc6ccccc6c5)cc4CC[C@H]3[C@@H]1[C@@H](CCCC(=O)N1CCOCC1)CC2=O` [Compound 83, 15alpha-(4-morpholin-4-yl-4-oxobutyl)-3-(quinolin-3-ylamino)estra-1(10),2,4-trien-17-one], in assay [2], the inhibition at 0.1 µM was found to be 19% and the inhibition at 1 µM stood at 50%.

These data come from patent publication US8288367B2, “Substituted estratriene derivatives as 17BETA HSD inhibitors” (Solvay Pharmaceuticals GmBH, priority 2006, dated 2012).
